# Source: patent US20130065868A1, “ANXIOYTIC MARCGRAVIACEAE COMPOSITIONS CONTAINING BETULINIC ACID, BETULINIC ACID DERIVATIVES, AND METHODS” (UNIVERSITY OF OTTAWA, priority 2002, published 2013)
# Assays:
# galanin GALR2 = galanin GALR2 (Homo sapiens, UniProt O43603); test: MDS Panlabs screen: galanin GALR2; assay type: binding; details: Peptides
# Method: (§1) Tests were conducted by MDS Panlabs to determine whether any of the classical neurotransmitter systems or the peptidergic systems thought to play a role in anxiety are affected by betulinic acid.
# interleukin IL-1α = test: MDS Panlabs screen: interleukin IL-1α; assay type: binding; details: Peptides
# Method: as §1
# muscarinic non-selective = test: MDS Panlabs screen: muscarinic non-selective; assay type: binding; details: Acetylcholine
# Method: as §1
# neuropeptide Y2 = neuropeptide Y2 (Homo sapiens, UniProt P49146); test: MDS Panlabs screen: neuropeptide Y2; assay type: binding; details: Peptides
# Method: as §1
# BALB/c mice = test: Elevated plus maze test in BALB/c mice; assay type: in vivo, mouse; details: vs peanut oil only control
# Source text: BALB/c mice represent a strain of mice that is very stress-reactive.
# Mice received dosages of betulinic acid in accordance with the previous example.
# GABAA, BZP = test: MDS Panlabs screen: GABAA, BZP; assay type: binding; details: Gabaergic
# Method: as §1
# VIP1 = VIP1 (Homo sapiens, UniProt P32241); test: MDS Panlabs screen: VIP1; assay type: binding; details: Peptides
# Method: as §1
# tachykinin NK2 = tachykinin NK2 (Homo sapiens, UniProt P21452); test: MDS Panlabs screen: tachykinin NK2; assay type: binding; details: Peptides
# Method: as §1
# neuropeptide Y1 = neuropeptide Y1 (Homo sapiens, UniProt P25929); test: MDS Panlabs screen: neuropeptide Y1; assay type: binding; details: Peptides
# Method: as §1
# adrenergic α1 = test: MDS Panlabs screen: adrenergic α1; assay type: binding; details: Catecholamines
# Method: as §1
# Histamine H1 = Histamine H1 (Homo sapiens, UniProt P35367); test: MDS Panlabs screen: Histamine H1; assay type: binding
# Method: as §1
# COX-2 = COX-2 (Homo sapiens, UniProt P35354); test: MDS Panlabs screen: cyclooxygenase COX-2; assay type: biochemical
# Method: as §1
# GABAB = GABAB (Homo sapiens, UniProt Q9UBS5); test: MDS Panlabs screen: GABAB; assay type: binding; details: Gabaergic
# Method: as §1
# Histamine H2 = Histamine H2 (Homo sapiens, UniProt P25021); test: MDS Panlabs screen: Histamine H2; assay type: binding
# Method: as §1
# adrenergic β = test: MDS Panlabs screen: adrenergic β; assay type: binding; details: Catecholamines
# Method: as §1
# cannabinoid C131 = cannabinoid C131 (Homo sapiens, UniProt P21554); test: MDS Panlabs screen: cannabinoid (first subtype); assay type: binding; details: Peptides
# Method: as §1
# Sprague-Dawley rats = test: Fear-potentiated startle paradigm in rats; assay type: in vivo, rat
# Source text: In this anxiety/fear paradigm, rats are first trained to associate a neutral stimulus (a light) with an aversive stimulus (an electric shock to the foot). […] However, when the acoustic stimulus is preceded by a fear cue (the light in this case), there is potentiation of their natural startle response. This potentiation of startle responses is thought to result from a classically conditioned increase in fear. Anxiolysis is inferred when there is a reduction in the magnitude of the fear-potentiated startle response.
# The fear potentiated startle equipment (Med-Associates, St-Albans, Vt.) constituted (1) a pressure-sensitive platform upon which the animal is placed (in an enclosure with shock-grid floor), (2) Speakers and amplifier, to deliver acoustic stimulus, (3) Computer controlled light cue, and (4) a computerized interface to deliver the auditory and/or visual stimuli, and to record the magnitude of startle detected by the platform. The whole set up is housed in a sound attenuated and darkened chamber.
# The experiment involved three phases; a training phase, a screening phase and the testing phase. […] The second or screening phase involved identifying the rats that learnt to associate the light cue with the shock, which was assessed by measuring their startle response in the absence and the presence of the fear cue. […]
# 5-HT1A = 5-HT1A (Homo sapiens, UniProt P08908); test: MDS Panlabs screen: 5-HT1A; assay type: binding; details: Serotonin (5-HT)
# Method: as §1
# Histamine H3 = Histamine H3 (Homo sapiens, UniProt Q9Y5N1); test: MDS Panlabs screen: Histamine H3; assay type: binding
# Method: as §1
# MAO A = MAO A (Homo sapiens, UniProt P21397); test: MDS Panlabs screen: MAO A; assay type: biochemical; details: Catecholamines
# Method: as §1
# melanocortin MC4 = melanocortin MC4 (Homo sapiens, UniProt P32245); test: MDS Panlabs screen: melanocortin MC4; assay type: binding; details: Peptides
# Method: as §1
# tachykinin NK3 = tachykinin NK3 (Homo sapiens, UniProt P29371); test: MDS Panlabs screen: tachykinin NK3; assay type: binding; details: Peptides
# Method: as §1
# NE transporter = NE transporter (Homo sapiens, UniProt P23975); test: MDS Panlabs screen: NE transporter; assay type: binding; details: Catecholamines
# Method: as §1
# CCKA = CCKA (Homo sapiens, UniProt P32238); test: MDS Panlabs screen: cholecystokinin (CCK) CCKA; assay type: binding; details: Peptides
# Method: as §1
# MAO B = MAO B (Homo sapiens, UniProt P27338); test: MDS Panlabs screen: MAO B; assay type: biochemical; details: Catecholamines
# Method: as §1
# 5-HT2 = test: MDS Panlabs screen: 5-HT2; assay type: binding; details: Serotonin (5-HT)
# Method: as §1
# DA transporter = DA transporter (Homo sapiens, UniProt Q01959); test: MDS Panlabs screen: DA transporter; assay type: binding; details: Catecholamines
# Method: as §1
# tachykinin NK3, sequence (P29371 whole entry): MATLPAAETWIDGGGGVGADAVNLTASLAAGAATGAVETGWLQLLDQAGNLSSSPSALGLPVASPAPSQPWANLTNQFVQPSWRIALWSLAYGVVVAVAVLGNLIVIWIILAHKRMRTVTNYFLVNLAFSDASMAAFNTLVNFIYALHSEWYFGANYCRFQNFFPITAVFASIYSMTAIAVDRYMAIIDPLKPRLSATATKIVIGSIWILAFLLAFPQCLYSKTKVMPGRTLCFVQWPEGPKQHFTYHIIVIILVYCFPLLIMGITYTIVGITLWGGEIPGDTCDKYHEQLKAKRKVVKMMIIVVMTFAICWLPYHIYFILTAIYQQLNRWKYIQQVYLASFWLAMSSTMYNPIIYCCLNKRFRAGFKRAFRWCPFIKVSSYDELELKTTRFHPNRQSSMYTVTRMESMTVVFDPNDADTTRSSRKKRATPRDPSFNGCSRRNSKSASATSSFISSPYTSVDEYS
# neuropeptide Y2, sequence (P49146 whole entry): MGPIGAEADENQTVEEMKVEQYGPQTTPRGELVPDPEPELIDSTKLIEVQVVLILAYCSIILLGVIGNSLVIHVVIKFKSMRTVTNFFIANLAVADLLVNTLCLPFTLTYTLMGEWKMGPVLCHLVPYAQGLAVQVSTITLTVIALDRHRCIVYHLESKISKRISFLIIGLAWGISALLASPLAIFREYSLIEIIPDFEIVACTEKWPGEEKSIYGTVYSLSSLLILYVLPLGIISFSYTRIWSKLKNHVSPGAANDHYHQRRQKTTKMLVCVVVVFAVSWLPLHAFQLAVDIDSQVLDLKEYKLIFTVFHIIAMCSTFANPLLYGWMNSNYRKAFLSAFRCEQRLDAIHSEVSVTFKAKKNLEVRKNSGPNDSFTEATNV
# Histamine H2, sequence (P25021 whole entry): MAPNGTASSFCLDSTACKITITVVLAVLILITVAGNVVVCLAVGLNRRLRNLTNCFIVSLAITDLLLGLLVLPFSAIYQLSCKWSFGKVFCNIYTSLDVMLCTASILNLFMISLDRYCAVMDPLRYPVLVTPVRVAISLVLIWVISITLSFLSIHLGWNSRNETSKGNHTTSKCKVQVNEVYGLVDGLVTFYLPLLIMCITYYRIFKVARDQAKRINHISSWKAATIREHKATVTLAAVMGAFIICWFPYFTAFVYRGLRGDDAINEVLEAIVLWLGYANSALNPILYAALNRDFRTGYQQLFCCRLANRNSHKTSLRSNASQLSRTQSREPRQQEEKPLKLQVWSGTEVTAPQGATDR
# MAO A, sequence (P21397 whole entry, species assumed): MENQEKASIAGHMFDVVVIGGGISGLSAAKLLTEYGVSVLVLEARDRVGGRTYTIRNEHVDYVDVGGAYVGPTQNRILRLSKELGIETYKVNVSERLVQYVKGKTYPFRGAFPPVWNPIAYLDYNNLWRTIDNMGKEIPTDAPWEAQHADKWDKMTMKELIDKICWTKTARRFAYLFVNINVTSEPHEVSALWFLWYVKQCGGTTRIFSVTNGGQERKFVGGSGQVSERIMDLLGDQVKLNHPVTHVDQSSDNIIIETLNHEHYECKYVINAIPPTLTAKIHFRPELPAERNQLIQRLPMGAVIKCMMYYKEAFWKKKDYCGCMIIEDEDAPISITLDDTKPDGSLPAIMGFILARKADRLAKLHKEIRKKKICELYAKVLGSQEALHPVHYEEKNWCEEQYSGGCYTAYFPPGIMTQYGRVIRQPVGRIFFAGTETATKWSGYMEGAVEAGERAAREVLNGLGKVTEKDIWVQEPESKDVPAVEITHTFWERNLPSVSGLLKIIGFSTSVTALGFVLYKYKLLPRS
# COX-2, sequence (P35354 18-604): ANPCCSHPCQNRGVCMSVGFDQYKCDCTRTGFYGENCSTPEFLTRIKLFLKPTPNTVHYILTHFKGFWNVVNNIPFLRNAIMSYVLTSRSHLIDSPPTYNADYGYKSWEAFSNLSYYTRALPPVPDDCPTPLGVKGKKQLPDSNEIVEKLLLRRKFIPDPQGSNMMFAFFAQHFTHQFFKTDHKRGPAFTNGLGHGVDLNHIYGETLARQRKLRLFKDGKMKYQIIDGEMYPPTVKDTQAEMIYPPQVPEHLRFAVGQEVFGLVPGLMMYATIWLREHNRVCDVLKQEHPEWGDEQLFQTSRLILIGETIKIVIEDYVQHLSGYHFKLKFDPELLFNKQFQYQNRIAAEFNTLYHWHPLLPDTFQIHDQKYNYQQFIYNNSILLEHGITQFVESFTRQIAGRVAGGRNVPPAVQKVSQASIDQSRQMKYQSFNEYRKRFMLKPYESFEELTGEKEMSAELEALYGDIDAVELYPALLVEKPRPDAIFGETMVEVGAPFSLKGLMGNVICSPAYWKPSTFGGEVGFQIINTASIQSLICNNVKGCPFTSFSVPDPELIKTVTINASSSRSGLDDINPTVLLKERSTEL
# NE transporter, sequence (P23975 whole entry): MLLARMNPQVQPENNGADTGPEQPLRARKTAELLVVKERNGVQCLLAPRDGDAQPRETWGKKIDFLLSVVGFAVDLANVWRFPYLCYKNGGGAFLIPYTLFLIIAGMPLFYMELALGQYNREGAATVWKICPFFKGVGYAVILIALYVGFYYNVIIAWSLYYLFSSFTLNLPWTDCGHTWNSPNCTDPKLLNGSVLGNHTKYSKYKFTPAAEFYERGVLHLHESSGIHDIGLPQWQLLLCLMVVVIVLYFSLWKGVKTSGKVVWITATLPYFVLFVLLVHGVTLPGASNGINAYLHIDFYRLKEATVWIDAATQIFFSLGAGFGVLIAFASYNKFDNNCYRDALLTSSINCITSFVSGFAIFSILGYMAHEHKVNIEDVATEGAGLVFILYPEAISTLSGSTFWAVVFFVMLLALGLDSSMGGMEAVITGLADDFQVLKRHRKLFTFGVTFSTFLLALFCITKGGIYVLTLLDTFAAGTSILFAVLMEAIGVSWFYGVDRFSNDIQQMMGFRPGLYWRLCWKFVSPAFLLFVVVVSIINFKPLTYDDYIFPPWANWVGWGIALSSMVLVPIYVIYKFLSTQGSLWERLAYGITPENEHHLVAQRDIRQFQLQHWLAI
# tachykinin NK2, sequence (P21452 whole entry): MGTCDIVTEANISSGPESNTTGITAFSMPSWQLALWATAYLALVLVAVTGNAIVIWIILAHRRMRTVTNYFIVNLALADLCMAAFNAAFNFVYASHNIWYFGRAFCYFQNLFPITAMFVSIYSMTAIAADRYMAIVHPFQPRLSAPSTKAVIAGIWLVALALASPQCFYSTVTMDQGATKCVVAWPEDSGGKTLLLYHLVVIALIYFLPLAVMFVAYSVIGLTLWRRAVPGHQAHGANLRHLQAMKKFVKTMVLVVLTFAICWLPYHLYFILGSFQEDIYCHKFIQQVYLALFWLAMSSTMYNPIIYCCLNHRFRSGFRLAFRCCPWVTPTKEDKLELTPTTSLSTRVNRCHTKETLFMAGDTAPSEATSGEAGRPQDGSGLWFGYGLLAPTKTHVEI
# cannabinoid C131, sequence (P21554 whole entry): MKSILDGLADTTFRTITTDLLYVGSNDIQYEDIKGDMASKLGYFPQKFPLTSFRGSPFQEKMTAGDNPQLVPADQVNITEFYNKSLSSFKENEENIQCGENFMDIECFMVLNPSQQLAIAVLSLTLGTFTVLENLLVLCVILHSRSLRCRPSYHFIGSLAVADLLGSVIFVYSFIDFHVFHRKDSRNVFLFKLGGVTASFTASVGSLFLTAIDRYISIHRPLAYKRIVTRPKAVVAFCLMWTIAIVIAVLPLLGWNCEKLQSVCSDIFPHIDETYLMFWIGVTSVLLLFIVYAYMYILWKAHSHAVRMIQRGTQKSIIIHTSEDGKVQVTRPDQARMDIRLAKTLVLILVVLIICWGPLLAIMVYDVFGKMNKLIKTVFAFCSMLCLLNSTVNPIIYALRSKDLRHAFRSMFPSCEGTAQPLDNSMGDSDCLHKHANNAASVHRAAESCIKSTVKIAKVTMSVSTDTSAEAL
# VIP1, sequence (P32241 31-457): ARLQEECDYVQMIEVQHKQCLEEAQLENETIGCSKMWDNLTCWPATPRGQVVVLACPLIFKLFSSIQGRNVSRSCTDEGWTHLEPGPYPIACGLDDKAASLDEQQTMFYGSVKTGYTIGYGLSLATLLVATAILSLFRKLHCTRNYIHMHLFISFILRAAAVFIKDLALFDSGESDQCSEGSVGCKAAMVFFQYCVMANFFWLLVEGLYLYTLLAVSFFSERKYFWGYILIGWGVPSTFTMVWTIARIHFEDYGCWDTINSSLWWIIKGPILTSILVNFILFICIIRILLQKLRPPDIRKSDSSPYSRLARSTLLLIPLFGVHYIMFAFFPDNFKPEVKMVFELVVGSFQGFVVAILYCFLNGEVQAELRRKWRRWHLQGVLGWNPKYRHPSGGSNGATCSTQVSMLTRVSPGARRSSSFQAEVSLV
# galanin GALR2, sequence (O43603 whole entry): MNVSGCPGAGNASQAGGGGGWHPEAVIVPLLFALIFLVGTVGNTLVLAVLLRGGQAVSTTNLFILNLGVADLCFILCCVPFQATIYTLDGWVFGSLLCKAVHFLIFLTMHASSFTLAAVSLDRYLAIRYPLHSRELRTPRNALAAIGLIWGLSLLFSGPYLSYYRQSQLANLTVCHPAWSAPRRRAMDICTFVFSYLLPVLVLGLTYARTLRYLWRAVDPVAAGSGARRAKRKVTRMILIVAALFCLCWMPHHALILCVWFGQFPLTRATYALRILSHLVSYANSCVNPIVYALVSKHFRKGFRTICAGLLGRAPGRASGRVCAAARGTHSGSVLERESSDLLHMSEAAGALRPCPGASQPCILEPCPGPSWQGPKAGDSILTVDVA
# melanocortin MC4, sequence (P32245 whole entry): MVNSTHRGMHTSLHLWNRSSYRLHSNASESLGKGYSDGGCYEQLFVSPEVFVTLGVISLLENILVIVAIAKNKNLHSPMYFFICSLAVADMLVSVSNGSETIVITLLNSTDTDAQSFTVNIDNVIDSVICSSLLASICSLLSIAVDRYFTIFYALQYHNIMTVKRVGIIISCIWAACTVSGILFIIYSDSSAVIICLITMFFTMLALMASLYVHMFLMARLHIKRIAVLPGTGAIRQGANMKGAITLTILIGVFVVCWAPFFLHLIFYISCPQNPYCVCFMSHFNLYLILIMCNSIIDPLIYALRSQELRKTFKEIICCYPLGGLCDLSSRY
structure (smiles),measurement,setting,value
"C=C(C)[C@@H]1CC[C@]2(C(=O)O)CC[C@]3(C)C(CC[C@@H]4[C@@]5(C)CC[C@H](O)C(C)(C)[C@@H]5CC[C@]43C)[C@@H]12 (stereo partly shown) [betulinic acid, Betulinic acid]",affected by betulinic acid,galanin GALR2,none of the following neurotransmitters or proteins were affected
same,affected by betulinic acid,interleukin IL-1α,none of the following neurotransmitters or proteins were affected
same,affected by betulinic acid,muscarinic non-selective,none of the following neurotransmitters or proteins were affected
same,affected by betulinic acid,neuropeptide Y2,none of the following neurotransmitters or proteins were affected
same,number of entries on the open arm of the elevated plus maze,BALB/c mice; 0.25 mg/kg i.p.,significantly increased
same,proportion of time spent on the open arm of the elevated plus maze,BALB/c mice; 0.25 mg/kg i.p.,significantly increased
same,number of entries on the open arm of the elevated plus maze,BALB/c mice; 2.5 mg/kg i.p.,significantly increased
same,proportion of time spent on the open arm of the elevated plus maze,BALB/c mice; 2.5 mg/kg i.p.,significantly increased
same,affected by betulinic acid,"GABAA, BZP",none of the following neurotransmitters or proteins were affected
same,affected by betulinic acid,VIP1,none of the following neurotransmitters or proteins were affected
same,affected by betulinic acid,tachykinin NK2,none of the following neurotransmitters or proteins were affected
same,affected by betulinic acid,neuropeptide Y1,none of the following neurotransmitters or proteins were affected
same,affected by betulinic acid,adrenergic α1,none of the following neurotransmitters or proteins were affected
same,affected by betulinic acid,Histamine H1,none of the following neurotransmitters or proteins were affected
same,affected by betulinic acid,COX-2,none of the following neurotransmitters or proteins were affected
same,affected by betulinic acid,GABAB,none of the following neurotransmitters or proteins were affected
same,affected by betulinic acid,Histamine H2,none of the following neurotransmitters or proteins were affected
same,affected by betulinic acid,adrenergic β,none of the following neurotransmitters or proteins were affected
same,affected by betulinic acid,cannabinoid C131,none of the following neurotransmitters or proteins were affected
same,startle response in the presence of the fear-cue,"Sprague-Dawley rats; 1 mg/kg in peanut oil orally (gavage), 45-60 min after treatment (FIG. 4)",significantly attenuated the startle response in the presence of the fear-cue
same,difference in startle amplitude (presence minus absence of the fear cue),"Sprague-Dawley rats; 1 mg/kg orally (gavage), vs peanut oil control (FIG. 4)",much lower
same,affected by betulinic acid,5-HT1A,none of the following neurotransmitters or proteins were affected
same,affected by betulinic acid,Histamine H3,none of the following neurotransmitters or proteins were affected
same,affected by betulinic acid,MAO A,none of the following neurotransmitters or proteins were affected
same,affected by betulinic acid,melanocortin MC4,none of the following neurotransmitters or proteins were affected
same,affected by betulinic acid,tachykinin NK3,none of the following neurotransmitters or proteins were affected
same,affected by betulinic acid,NE transporter,none of the following neurotransmitters or proteins were affected
same,affected by betulinic acid,CCKA,none of the following neurotransmitters or proteins were affected
same,affected by betulinic acid,MAO B,none of the following neurotransmitters or proteins were affected
same,affected by betulinic acid,5-HT2,none of the following neurotransmitters or proteins were affected
same,affected by betulinic acid,DA transporter,none of the following neurotransmitters or proteins were affected
